According to patent US20250059198A1, “BRM DEGRADING COMPOUNDS AND ASSOCIATED METHODS OF USE” (Arvinas Operations, Inc., priority 2021, published 2025):

Molecular target: T1, BRM (Homo sapiens, UniProt P51531)
T1 construct: Western Blot Screen of BRM Degradation in SW1573 Cells; endogenous in cells; host or cells: SW1573 cells
Assay: BRM degradation (Dmax and DC50) in SW1573 cells, Western blot screen / In-Cell Western screen
Format: cell-based
Settings: overnight (18-20 hours) treatment; for Dmax: read-out: Dmax (%)** (% degraded)
In short: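 SW1573 cells were treated with compound for 18–20 h (final 0.1% DMSO). BRM was quantified either by Western blot of RIPA lysates or by fixed-cell In-Cell Western (LI-COR, 800/680 nm), each normalised to alpha-tubulin, giving Dmax and DC50.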

T1 sequence (P51531 whole entry): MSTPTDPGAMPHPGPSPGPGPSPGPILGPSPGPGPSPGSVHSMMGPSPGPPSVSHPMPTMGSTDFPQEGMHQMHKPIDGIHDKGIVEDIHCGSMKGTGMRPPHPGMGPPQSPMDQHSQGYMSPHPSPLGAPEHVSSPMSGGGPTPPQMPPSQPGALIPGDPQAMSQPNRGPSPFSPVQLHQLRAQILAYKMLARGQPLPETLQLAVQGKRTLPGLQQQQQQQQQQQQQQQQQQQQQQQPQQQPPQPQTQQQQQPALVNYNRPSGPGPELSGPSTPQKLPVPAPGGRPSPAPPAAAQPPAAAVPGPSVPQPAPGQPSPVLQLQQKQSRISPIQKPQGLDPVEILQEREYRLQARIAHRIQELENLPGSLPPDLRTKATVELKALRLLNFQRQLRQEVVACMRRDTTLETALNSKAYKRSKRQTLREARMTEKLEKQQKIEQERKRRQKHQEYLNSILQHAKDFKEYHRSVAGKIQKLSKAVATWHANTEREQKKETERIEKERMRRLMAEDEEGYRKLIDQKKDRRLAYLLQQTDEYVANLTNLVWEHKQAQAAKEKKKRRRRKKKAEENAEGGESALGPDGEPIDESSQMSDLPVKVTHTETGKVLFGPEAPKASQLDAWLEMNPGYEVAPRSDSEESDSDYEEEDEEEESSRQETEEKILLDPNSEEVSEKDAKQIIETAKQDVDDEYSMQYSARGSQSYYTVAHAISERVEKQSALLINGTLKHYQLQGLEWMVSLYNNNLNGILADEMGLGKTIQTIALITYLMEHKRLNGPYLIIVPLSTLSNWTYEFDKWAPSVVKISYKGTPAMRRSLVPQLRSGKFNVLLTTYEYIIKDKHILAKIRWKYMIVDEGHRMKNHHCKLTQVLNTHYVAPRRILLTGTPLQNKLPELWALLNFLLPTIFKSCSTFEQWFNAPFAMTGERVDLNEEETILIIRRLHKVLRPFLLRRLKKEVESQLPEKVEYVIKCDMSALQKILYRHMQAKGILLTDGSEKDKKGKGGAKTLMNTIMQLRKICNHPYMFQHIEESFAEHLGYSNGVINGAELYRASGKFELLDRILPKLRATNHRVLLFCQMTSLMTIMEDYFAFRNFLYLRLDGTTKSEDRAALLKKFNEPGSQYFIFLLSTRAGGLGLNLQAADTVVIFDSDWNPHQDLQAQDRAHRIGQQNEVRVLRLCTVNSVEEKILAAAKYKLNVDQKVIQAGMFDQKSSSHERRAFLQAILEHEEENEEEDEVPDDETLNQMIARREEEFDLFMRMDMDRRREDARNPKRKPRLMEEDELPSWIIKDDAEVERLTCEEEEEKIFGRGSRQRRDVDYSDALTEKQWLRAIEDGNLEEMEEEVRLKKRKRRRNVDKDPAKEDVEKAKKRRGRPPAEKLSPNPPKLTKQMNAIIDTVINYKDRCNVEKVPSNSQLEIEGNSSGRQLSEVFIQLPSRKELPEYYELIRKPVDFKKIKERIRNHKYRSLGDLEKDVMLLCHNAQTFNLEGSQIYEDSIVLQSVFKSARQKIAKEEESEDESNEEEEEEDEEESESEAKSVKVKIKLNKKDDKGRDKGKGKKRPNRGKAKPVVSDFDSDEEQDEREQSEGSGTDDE

Compound | DC50 | Dmax
CC(C)C(C(=O)N1C[C@H](O)C[C@H]1C(=O)N[C@@H](C)c1ccc(-c2ccnn2C)cc1)c1cc(OCC#Cc2ncc(O[C@H]3C[C@H](Oc4cc(N5CCN(c6cc(-c7ccccc7O)nnc6N)CC5)ccn4)C3)cn2)no1 (stereo partly drawn) [Compound 34, (2S,4R)-4-hydroxy-N-[(1S)-1-[4-(1-methyl-1H-pyrazol-5-yl)phenyl]ethyl]-1-(3-methyl-2-{3-[(3-{5-[(1r,3r)-3-[(4-{4-[3-amino-6-(2-hydroxyphenyl)pyridazin-4-yl]piperazin-1-yl}pyridin-2-yl)oxy]cyclobutoxy]pyrimidin-2-yl}prop-2-yn-1-yl)oxy]-1,2-oxazol-5-yl}butanoyl)pyrrolidine-2-carboxamide] | < 2.5 nM | > 75%
Cc1ncsc1-c1ccc([C@H](C)NC(=O)[C@@H]2C[C@@H](O)CN2C(=O)[C@@H](c2cc(OCCOC(=O)N3CCC(O[C@H]4C[C@H](Oc5cc(N6C7CCC6CN(c6cc(-c8ccccc8O)nnc6N)C7)ccn5)C4)CC3)no2)C(C)C)cc1 [Compound 127, 2-({5-[(2R)-1-[(2S,4R)-4-hydroxy-2-{[(1S)-1-[4-(4-methyl-1,3-thiazol-5-yl)phenyl]ethyl]carbamoyl}pyrrolidin-1-yl]-3-methyl-1-oxobutan-2-yl]-1,2-oxazol-3-yl}oxy)ethyl 4-[(1r,3r)-3-[(4-{3-[3-amino-6-(2-hydroxyphenyl)pyridazin-4-yl]-3,8-diazabicyclo[3.2.1]octan-8-yl}pyridin-2-yl)oxy]cyclobutoxy]piperidine-1-carboxylate] | ≥ 30 nM | –
Cc1ncsc1-c1ccc([C@H](C)NC(=O)[C@@H]2C[C@@H](O)CN2C(=O)[C@@H](c2cc(N3CCC(CN4CC[C@H](OC(=O)N5CCN(c6cc(-c7ccccc7O)nnc6N)CC5)[C@@H](F)C4)CC3)no2)C(C)C)cc1 [Compound 104, (3S,4S)-3-fluoro-1-[(1-{5-[(2R)-1-[(2S,4R)-4-hydroxy-2-{[(1S)-1-[4-(4-methyl-1,3-thiazol-5-yl)phenyl]ethyl]carbamoyl}pyrrolidin-1-yl]-3-methyl-1-oxobutan-2-yl]-1,2-oxazol-3-yl}piperidin-4-yl)methyl]piperidin-4-yl 4-[3-amino-6-(2-hydroxyphenyl)pyridazin-4-yl]piperazine-1-carboxylate] | < 2.5 nM | > 75%
Cc1ncsc1-c1ccc([C@H](C)NC(=O)[C@@H]2C[C@@H](O)CN2C(=O)[C@@H](c2cc(N3CCC(CN4CCC(O[C@H]5C[C@H](N6CCC(F)(CN7C8CCC7CN(c7cc(-c9ccccc9O)nnc7N)C8)CC6)C5)CC4)CC3)no2)C(C)C)cc1 [Compound 27, (2S,4R)-4-hydroxy-N-[(1S)-1-[4-(4-methyl-1,3-thiazol-5-yl)phenyl]ethyl]-1-[(2R)-3-methyl-2-{3-[4-({4-[(1r,3r)-3-[4-({3-[3-amino-6-(2-hydroxyphenyl)pyridazin-4-yl]-3,8-diazabicyclo[3.2.1]octan-8-yl}methyl)-4-fluoropiperidin-1-yl]cyclobutoxy]piperidin-1-yl}methyl)piperidin-1-yl]-1,2-oxazol-5-yl}butanoyl]pyrrolidine-2-carboxamide] | < 2.5 nM | > 75%
Cc1ncsc1-c1ccc([C@H](C)NC(=O)[C@@H]2C[C@@H](O)CN2C(=O)[C@@H](c2cc(N3CCC(OC4CCN(C[C@H]5C[C@H](N6CCOC7(CCN(c8cc(-c9ccccc9O)nnc8N)CC7)C6)C5)CC4)CC3)no2)C(C)C)cc1 [Compound 56, (2S,4R)-4-hydroxy-N-[(1S)-1-[4-(4-methyl-1,3-thiazol-5-yl)phenyl]ethyl]-1-[(2R)-3-methyl-2-(3-{4-[(1-{[(1r,3r)-3-{9-[3-amino-6-(2-hydroxyphenyl)pyridazin-4-yl]-1-oxa-4,9-diazaspiro[5.5]undecan-4-yl}cyclobutyl]methyl}piperidin-4-yl)oxy]piperidin-1-yl}-1,2-oxazol-5-yl)butanoyl]pyrrolidine-2-carboxamide] | < 2.5 nM | > 75%
CC(C)[C@@H](C(=O)N1C[C@H](O)C[C@H]1C(=O)N[C@@H](C)c1ccc(-c2ccnn2C)cc1)c1cc(N2CCC(OC3CCN(CC4CC(N5CCC([C@@H](C)n6cc(C#Cc7cc(-c8ccccc8O)nnc7N)cn6)CC5)C4)CC3)CC2)no1 (stereo partly drawn) [Compound 110, (2S,4R)-1-[(2R)-2-{3-[4-({1-[(3-{4-[(1R)-1-(4-{2-[3-amino-6-(2-hydroxyphenyl)pyridazin-4-yl]ethynyl}-1H-pyrazol-1-yl)ethyl]piperidin-1-yl}cyclobutyl)methyl]piperidin-4-yl}oxy)piperidin-1-yl]-1,2-oxazol-5-yl}-3-methylbutanoyl]-4-hydroxy-N-[(1S)-1-[4-(1-methyl-1H-pyrazol-5-yl)phenyl]ethyl]pyrrolidine-2-carboxamide] | < 2.5 nM | > 75%
CC(C)[C@@H](C(=O)N1C[C@H](O)C[C@H]1C(=O)N[C@@H](C)c1ccc(C#N)cc1)c1cc(N2CCC(CN3CCC(O[C@H]4C[C@H](N5CCC(C(C)n6cc(C#Cc7cc(-c8ccccc8O)nnc7N)cn6)CC5)C4)CC3)CC2)no1 (stereo partly drawn) [Compound 78, (2S,4R)-N-[(1S)-1-(4-cyanophenyl)ethyl]-4-hydroxy-1-[(2R)-3-methyl-2-{3-[4-({4-[(1r,3r)-3-{4-[1-(4-{2-[3-amino-6-(2-hydroxyphenyl)pyridazin-4-yl]ethynyl}-1H-pyrazol-1-yl)ethyl]piperidin-1-yl}cyclobutoxy]piperidin-1-yl}methyl)piperidin-1-yl]-1,2-oxazol-5-yl}butanoyl]pyrrolidine-2-carboxamide] | 2.5 to 10 nM | > 75%
Cc1ncsc1-c1ccc([C@H](C)NC(=O)[C@@H]2C[C@@H](O)CN2C(=O)[C@H](c2cc(N3CCC(O[C@H]4CC[C@H](Oc5cc(N6C7CCC6CN(c6cc(-c8ccccc8O)nnc6N)C7)ccn5)CC4)CC3)no2)C(C)C)cc1 [Compound 135, (2S,4R)-4-hydroxy-N-[(1S)-1-[4-(4-methyl-1,3-thiazol-5-yl)phenyl]ethyl]-1-[(2S)-3-methyl-2-[3-(4-{[(1r,4r)-4-[(4-{3-[3-amino-6-(2-hydroxyphenyl)pyridazin-4-yl]-3,8-diazabicyclo[3.2.1]octan-8-yl}pyridin-2-yl)oxy]cyclohexyl]oxy}piperidin-1-yl)-1,2-oxazol-5-yl]butanoyl]pyrrolidine-2-carboxamide] | ≥ 30 nM | –
Cc1ncsc1-c1ccc([C@H](C)NC(=O)[C@@H]2C[C@@H](O)CN2C(=O)[C@@H](c2cc(N3CCC(CN4CCC5(CC4)CC(N4CCO[C@@H]([C@@H](C)n6cc(C#Cc7cc(-c8ccccc8O)nnc7N)cn6)C4)C5)CC3)no2)C(C)C)cc1 [Compound 99, (2S,4R)-1-[(2R)-2-{3-[4-({2-[(2R)-2-[(1R)-1-(4-{2-[3-amino-6-(2-hydroxyphenyl)pyridazin-4-yl]ethynyl}-1H-pyrazol-1-yl)ethyl]morpholin-4-yl]-7-azaspiro[3.5]nonan-7-yl}methyl)piperidin-1-yl]-1,2-oxazol-5-yl}-3-methylbutanoyl]-4-hydroxy-N-[(1S)-1-[4-(4-methyl-1,3-thiazol-5-yl)phenyl]ethyl]pyrrolidine-2-carboxamide] | < 2.5 nM | > 75%
CC(NC(=O)[C@@H]1C[C@@H](O)CN1C(=O)[C@@H](c1cc(N2CCC(CN3CCC(O[C@H]4C[C@H](Oc5cc(N6C7CCC6CN(c6cc(-c8ccccc8O)nnc6N)C7)ccn5)C4)CC3)CC2)no1)C(C)C)c1ccc(C#N)c(F)c1 (stereo partly drawn) [Compound 4, (2S,4R)-N-[1-(4-cyano-3-fluorophenyl)ethyl]-4-hydroxy-1-[(2R)-3-methyl-2-{3-[4-({4-[(1r,3r)-3-[(4-{3-[3-amino-6-(2-hydroxyphenyl)pyridazin-4-yl]-3,8-diazabicyclo[3.2.1]octan-8-yl}pyridin-2-yl)oxy]cyclobutoxy]piperidin-1-yl}methyl)piperidin-1-yl]-1,2-oxazol-5-yl}butanoyl]pyrrolidine-2-carboxamide] | < 2.5 nM | > 75%
Cc1nccn1-c1ccc([C@H](C)NC(=O)[C@@H]2C[C@@H](O)CN2C(=O)[C@@H](c2cc(N3CCC(CN4CCC(O[C@H]5C[C@H](N6CCC(C(C)n7cc(C#Cc8cc(-c9ccccc9O)nnc8N)cn7)CC6)C5)CC4)CC3)no2)C(C)C)cc1 (stereo partly drawn) [Compound 91, (2S,4R)-4-hydroxy-N-[(1S)-1-[4-(2-methyl-1H-imidazol-1-yl)phenyl]ethyl]-1-[(2R)-3-methyl-2-{3-[4-({4-[(1r,3r)-3-{4-[1-(4-{2-[3-amino-6-(2-hydroxyphenyl)pyridazin-4-yl]ethynyl}-1H-pyrazol-1-yl)ethyl]piperidin-1-yl}cyclobutoxy]piperidin-1-yl}methyl)piperidin-1-yl]-1,2-oxazol-5-yl}butanoyl]pyrrolidine-2-carboxamide] | < 2.5 nM | > 75%
Cc1ncsc1-c1ccc([C@H](C)NC(=O)[C@@H]2C[C@@H](O)CN2C(=O)[C@@H](c2cc(N3CCN(C(=O)N4CC(Oc5cc(N6C7CCC6CN(c6cc(-c8ccccc8O)nnc6N)C7)ccn5)C4)CC3)no2)C(C)C)cc1 [Compound 129, (2S,4R)-1-[(2R)-2-[3-(4-{3-[(4-{3-[3-amino-6-(2-hydroxyphenyl)pyridazin-4-yl]-3,8-diazabicyclo[3.2.1]octan-8-yl}pyridin-2-yl)oxy]azetidine-1-carbonyl}piperazin-1-yl)-1,2-oxazol-5-yl]-3-methylbutanoyl]-4-hydroxy-N-[(1S)-1-[4-(4-methyl-1,3-thiazol-5-yl)phenyl]ethyl]pyrrolidine-2-carboxamide] | 2.5 to 10 nM | > 75%
Cc1ncsc1-c1ccc([C@H](C)NC(=O)[C@@H]2C[C@@H](O)CN2C(=O)[C@@H](c2cc(N3CCC(CN4CCC5(CC4)CC(N4CCC[C@](O)(CN6C7CCC6CN(c6cc(-c8ccccc8O)nnc6N)C7)C4)C5)CC3)no2)C(C)C)cc1 [Compound 61, (2S,4R)-1-[(2R)-2-{3-[4-({2-[(3R)-3-({3-[3-amino-6-(2-hydroxyphenyl)pyridazin-4-yl]-3,8-diazabicyclo[3.2.1]octan-8-yl}methyl)-3-hydroxypiperidin-1-yl]-7-azaspiro[3.5]nonan-7-yl}methyl)piperidin-1-yl]-1,2-oxazol-5-yl}-3-methylbutanoyl]-4-hydroxy-N-[(1S)-1-[4-(4-methyl-1,3-thiazol-5-yl)phenyl]ethyl]pyrrolidine-2-carboxamide] | < 2.5 nM | > 75%
